Laboratory results published in patent US20230065158A1, “OXABICYCLOHEPTANES FOR TREATMENT OF SMALL CELL LUNG CANCER” (Lixte Biotechnology, Inc., priority 2021, published 2023).

Columns and labels:
[1] = target: T1, PP2A (Homo sapiens, UniProt P67775); assay: PP2A immunoprecipitation Ser/Thr phosphatase activity assay in treated H524 cells; format: cell-based; details: LB-100 5 μM, 24 h, H524 cells
T1 construct: endogenous in cells; host or cells: H524 (human SCLC) cells
Protocol: FIGS. 1A-IL depict the effects of LB-100 on PP2A-A expression in SCLC tumors and cells. […] A Mann-Whitney U test was used for comparison between the normal and SCLC samples. FIG. 1B: IHC for PP2A was conducted on TMA tissue sections and images were captured at 4× or 20× using a 3D-Histech PANNORAMIC SCAN whole slide scanner (3D-Histech, Budapest, Hungary). […] TMAs were scored in normal (n=24) and tumor (n=79) cores on a scale from 0 (no staining/no protein expression) to 3+(strong staining/high protein expression). FIG. 1C: Summary bar graph of the average PP2A subunit staining. IHC staining intensity of normal and tumor cores. There was a statistically significant difference between normal and tumor tissue (p<0.001). FIG. 1D: In order to compare the expression of PP2A subunits A and C, cell lysates from seven SCLC cell lines and HBEC 3KT (non-malignant cell line) were subjected to western blotting. FIG. 1E: PP2A activity was determined using a serine/threonine phosphatase activity assay (Millipore) after 24 h exposure to cantharidin (10 μM) and LB-100 (5 μM). […] LB-100 alone or in combination with carboplatin inhibited proliferation and colony formation in SCLC cells. The Cell Counting Kit-8 assay detected cell H524 and H69 cell viability. […] FIGS. 1I-1K: Graphs depict the mean+SEM of percent viability for cells (n=3). […]

[2] = test system: MET; assay: MET phosphorylation (Tyr 1234/1235) western blot after HGF stimulation; format: cell-based; details: HGF 10 min
Excerpt: FIGS. 4A-4F depict a reactome pathway analysis of PamGene PTKs and STKs after LB-100 treatment of H524 cells and Biolog phenotype MicroArray. […] Table includes 10 carbon sources affected by LB-100 (n=3). […] P<0.001 (***) for control (untreated cells) vs. LB-100. FIG. 4D: Amplex Red Glucose/Oxidase assay kit was used to measure glucose level in cell culture media. […] Glucose concentration detected in initial medium and counted as 100%. Subtracting final medium level of glucose from initial glucose medium concentration yielded % glucose in the medium with cells (n=3). Effect of LB-100 on MET phosphorylation. […] FIG. 4F: H524 cell lysates (control, LB-100, carboplatin and combination (LB-100/carboplatin) were analyzed by western blots to check phosphorylation status of MET at Ser985 and Tyr1234/1235. Actin was used as a loading control (n=3). […]
Whole cell lysates were prepared using RIPA lysis buffer and proteins were detected by immunoblotting using antibodies specific against PP2A A, PP2A C, Phospho-Histone H2AX (S139), MET, pMet (Tyr 1234/1235), Cleaved Caspase 3 and pan-Actin antibodies from CST (City of Industry, CA), Cleaved PARP1 (Santa Cruz Biotechnology, Dallas, Tex.) and pMET (Ser985) (ThermoFisher Scientific, Waltham, Mass.) were used as described previously (22).

[3] = target: protein phosphatase 2A (PP2A) (Homo sapiens, UniProt P67775); assay: Inhibition of PP2A versus PP1; format: biochemical; details: PP2A vs PP1
Sequence of protein phosphatase 2A (PP2A) (P67775 whole entry): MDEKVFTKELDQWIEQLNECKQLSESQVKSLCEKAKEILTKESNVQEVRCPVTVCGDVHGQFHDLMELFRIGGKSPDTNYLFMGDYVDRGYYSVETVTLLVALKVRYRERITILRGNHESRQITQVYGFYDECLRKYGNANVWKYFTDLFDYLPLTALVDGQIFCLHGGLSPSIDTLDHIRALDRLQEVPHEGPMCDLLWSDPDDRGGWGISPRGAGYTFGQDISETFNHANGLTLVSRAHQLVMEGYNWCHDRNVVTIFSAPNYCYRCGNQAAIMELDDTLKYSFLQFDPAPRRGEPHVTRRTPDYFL

[4] = test system: H69 cells; assay: BiOLOG Phenotype Microarray carbon substrate utilization; format: cell-based; details: LB100 20 μM overnight
Excerpt: FIGS. 4A-4F depict a reactome pathway analysis of PamGene PTKs and STKs after LB-100 treatment of H524 cells and Biolog phenotype MicroArray. […] Table includes 10 carbon sources affected by LB-100 (n=3). […] P<0.001 (***) for control (untreated cells) vs. LB-100. FIG. 4D: Amplex Red Glucose/Oxidase assay kit was used to measure glucose level in cell culture media. […] Glucose concentration detected in initial medium and counted as 100%. Subtracting final medium level of glucose from initial glucose medium concentration yielded % glucose in the medium with cells (n=3). Effect of LB-100 on MET phosphorylation. FIG. 4E: H524 and H69 cells were treated overnight with LB-100 (H524—5 μM and H69—20 μM) following by stimulation with 100 ng/ml HGF in 10 min. Cells were collected and lysed for WB analysis with pMET and total MET antibody. Pan-actin was used as loading control (n=3). FIG. 4F: H524 cell lysates (control, LB-100, carboplatin and combination (LB-100/carboplatin) were analyzed by western blots to check phosphorylation status of MET at Ser985 and Tyr1234/1235. Actin was used as a loading control (n=3). […]
Phenotype Microarrays (PMs) use a patented redox chemistry, employing cell respiration as a universal reporter. […] The redox assay provides for both amplification and precise quantitation of phenotypes. […]

[5] = test system: H526 cells; details: human, 72 h
Excerpt: (§1) To determine specific cytotoxicity, we used Cell Counting Kit-8 (Dojindo Molecular Technologies, Rockville, Md.) as previously described (50).

[6] = test system: H82 cells; assay: Cell Counting Kit-8 cytotoxicity, H82; details: read-out: Cytotoxicity IC50; H82; 72 hours
Excerpt: as §1

T1 sequence (P67775 whole entry): as above
T1 sequence (P30153 whole entry partner): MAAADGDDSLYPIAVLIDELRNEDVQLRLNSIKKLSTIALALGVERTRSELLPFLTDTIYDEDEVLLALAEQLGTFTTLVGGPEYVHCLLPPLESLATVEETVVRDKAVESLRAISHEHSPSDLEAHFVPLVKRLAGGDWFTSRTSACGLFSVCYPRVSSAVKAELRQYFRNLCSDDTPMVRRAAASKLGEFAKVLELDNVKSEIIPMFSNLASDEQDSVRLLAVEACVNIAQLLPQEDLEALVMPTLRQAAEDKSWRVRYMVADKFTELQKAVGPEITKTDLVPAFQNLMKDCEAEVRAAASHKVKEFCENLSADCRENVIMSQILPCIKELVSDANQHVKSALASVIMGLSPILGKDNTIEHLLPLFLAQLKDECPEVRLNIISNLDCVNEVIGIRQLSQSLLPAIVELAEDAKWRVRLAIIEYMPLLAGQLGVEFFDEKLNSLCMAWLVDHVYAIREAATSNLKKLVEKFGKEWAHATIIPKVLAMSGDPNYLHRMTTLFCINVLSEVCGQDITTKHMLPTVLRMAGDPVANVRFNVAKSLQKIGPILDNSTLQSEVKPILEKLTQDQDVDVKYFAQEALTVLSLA

C[NH+]1CCN(C(=O)C2C(C(=O)O)[C@H]3CC[C@@H]2O3)CC1 (stereo in doubt) [LB-100, 3-[(4-Methylpiperazin-1-yl)carbonyl]-7-oxabicyclo[2.2.1]heptane-2-carboxylic acid]
phosphatase activity inhibited to [1]: 65%
level of HGF phosphorylation of MET ([2]; H69, LB100 20 μM): significantly decreased
MET basal and HGF activated phosphorylation ([2]; H524, LB100 5 μM): almost abrogated
inhibits PP2A more efficiently than protein phosphatase 1 (PP1) [3]: about 80 fold
reduction of glycogen consumption [4]: more than 2.7 fold
reduction of α-D-Glucose consumption [4]: more than 6 fold
IC50 [5]: 7.2 µM

N.N.O=C([O-])C1(C(=O)[O-])CCC1.[Pt+2] [Carboplatin, reference compound]
IC50 [6]: 46.5 µM
